Structures can show the parent of a compound that is named as a salt.
Assay: in vitro
Conditions: rat, gh3-tre-luc cells

Structure (SMILES)	CC50 at 24 h (AC50 (uM) modified / 1000) [µM]	further results
OCCN(CCO)CCN(CCO)CCO [2,2',2'',2'''-(1,2-Ethanediyldinitrilo)tetrakisethanol]	> 90	
c1ccc2c(c1)ccc1ccccc12 [Phenanthrene]	> 90	
O=C1c2ccccc2Cc2ccccc21 [Anthrone]	13.5	
C(/C=C/C=C/Nc1ccccc1)=Nc1ccccc1 [N,N'-Penta-1,3-dien-1-yl-5-ylidenedianiline hydrochloride]	> 90	
Nc1cc(O)nc(N)n1 [2,4-Diamino-6-hydroxypyrimidine]	> 50	
Nc1cccnc1 [3-Pyridinamine]		CC50 at 24 h (AC50 (uM) modified / 1000, Tox21_110001=Tox21_201650, viability, 1 nM T3 present, 24 h): > 90 µM
NC(=O)C[C@@H](N)C(=O)O [D-Asparagine hydrate]	> 50	
O=C(Nc1ccc(Br)cc1)c1cc(Br)cc(Br)c1O [Tribromsalan]		CC50 at 24 h (AC50 (uM) modified / 1000, Tox21_110001=Tox21_111700, viability, 1 nM T3 present, 24 h): 14.2 µM; CC50 at 24 h (AC50 (uM) modified / 1000, Tox21_110001=Tox21_202442, viability, 1 nM T3 present, 24 h): 5.41 µM; CC50 at 24 h (AC50 (uM) modified / 1000, Tox21_110001=Tox21_303223, viability, 1 nM T3 present, 24 h): 6.43 µM
CCCC[n+]1cccc(C)c1 [1-Butyl-3-methylpyridinium bromide]	> 90	
NCCN1CCNC1=O [1-(2-Aminoethyl)imidazolidin-2-one]	> 90	
CC(=O)C(=O)O [Pyruvic acid]	> 90	
C=C(C)[C@@H]1CC=C(C)CC1 [(S)-Limonene]	> 90	
CC(C)c1ccc(S(=O)(=O)O)cc1 [4-Isopropylbenzenesulfonic acid]	> 90	
COC(=O)C1=C(C)NC(C)=C(C(=O)OCC(C)=O)C1c1ccccc1[N+](=O)[O-] (centres unmarked) [Aranidipine]	8.18	
O=C(C[C@H]1NCCC[C@@H]1O)Cn1cnc2cc(Br)c(Cl)cc2c1=O (racemic) [Halofuginone hydrochloride]	> 50	
CC(C)(C)NCC(O)c1ccc(O)c(CO)n1 (centres unmarked) [Pirbuterol hydrochloride]	> 50	
CCCCCCCCCCCCCCCCCC#N [Octadecanenitrile]	> 90	
CCCCC(CC)COCCCN (centres unmarked) [3-((2-Ethylhexyl)oxy)propylamine]	> 90	
O=C(O)c1ccccc1[N+](=O)[O-] [2-Nitrobenzoic acid]	> 90	
CC(N)CCCC(C)(C)O (centres unmarked) [Heptaminol hydrochloride]	> 50	
N#CC(c1ccccc1)c1ccccc1 [Diphenylacetonitrile]		CC50 at 24 h (AC50 (uM) modified / 1000, Tox21_110001=Tox21_201556, viability, 1 nM T3 present, 24 h): > 90 µM
O=C(O)c1ccc(C(=O)O)c(C(=O)O)c1 [1,2,4-Benzenetricarboxylic acid]	> 90	
CN1CCC(N(Cc2cccs2)c2ccccc2)CC1 [Thenalidine]	27	
N#CSCc1ccccc1 [Benzyl thiocyanate]		CC50 at 24 h (AC50 (uM) modified / 1000, Tox21_110001=Tox21_200015, viability, 1 nM T3 present, 24 h): > 90 µM
C=CCC=CC [1,4-Hexadiene]	> 90	

Structure (SMILES)	CC50 at 24 h (AC50 (uM) modified / 1000) [µM]	further results
CC(C)COC(=O)C(C)C [Isobutyl isobutyrate]	> 90	
O=[N+]([O-])c1ccc(Cl)cc1Cl [2,4-Dichloronitrobenzene]	> 90	
CCCCC(=O)O [Pentanoic acid]	> 90	
CCCCCCCCCCOC(=O)c1ccccc1C(=O)OCCCCCCCC [Octyl decyl phthalate]	> 90	
CCCCCCCCCC[N+](C)(C)[O-] [N,N-Dimethyldecylamine oxide]	> 90	
Cn1ccc2cc3c(cc21)CCN3C(=O)Nc1cccnc1 [SB 206553 hydrochloride]	> 50	
CC1(C)[C@H]2CC[C@]1(C)C(=O)C2 [Camphor]	> 90	
Nc1cc(Cl)c(N=C2NCCN2)c(Cl)c1 [Apraclonidine hydrochloride]	> 50	
COP(=S)(OC)Oc1ccc(Sc2ccc(OP(=S)(OC)OC)cc2)cc1 [Temephos]		CC50 at 24 h (AC50 (uM) modified / 1000, Tox21_110001=Tox21_112075, viability, 1 nM T3 present, 24 h): > 50 µM; CC50 at 24 h (AC50 (uM) modified / 1000, Tox21_110001=Tox21_301778, viability, 1 nM T3 present, 24 h): > 90 µM
Cc1ncc2n1-c1ccc(Cl)cc1C(c1ccccc1F)=NC2 [Midazolam hydrochloride]	> 50	
CC(C)=CC(=O)C=C(C)C [Phorone]	> 90	
O=S(=O)(O)C(F)(F)C(F)(F)C(F)(F)C(F)(F)F [Potassium perfluorobutanesulfonate]		CC50 at 24 h (AC50 (uM) modified / 1000, Tox21_110001=Tox21_400051, viability, 1 nM T3 present, 24 h): > 100 µM
COc1cc(NCc2ccc3nc(N)nc(N)c3c2C)cc(OC)c1OC [Trimetrexate trihydrochloride]	8.81	
CCCCCCNC(=O)n1cc(F)c(=O)[nH]c1=O [Carmofur]	8.69	
O=C(O)/C=C\C(=O)Nc1ccc(S(=O)(=O)Nc2nccs2)cc1 [Maleylsulfathiazole]	> 50	
CSc1ccc2c(c1)N(CCC1CCCCN1C)c1ccccc1S2 (centres unmarked) [Thioridazine hydrochloride]	7.04	
NC(=O)c1cc[n+](CC2=C(C(=O)O)N3C(=O)[C@@H](NC(=O)[C@@H](c4ccccc4)S(=O)(=O)[O-])[C@H]3SC2)cc1 [Cefsulodin sodium]	> 20	
O=C(Nc1ccc(O)cc1)c1ccccc1O [Osalmid]	> 50	
CCCCCOC(C)=O [Pentyl acetate]	> 90	
ClCc1ccc(Cl)cc1Cl [2,4-Dichloro-1-(chloromethyl)benzene]	> 90	
CCCCC(=O)N(C)C [N,N-Dimethylpentanamide]	> 90	
CNC(=O)c1cc(Oc2ccc(NC(=O)Nc3ccc(Cl)c(C(F)(F)F)c3)cc2)ccn1 [Sorafenib tosylate]	9.89	
CC1(C)O[C@@H]2C[C@H]3[C@@H]4CCC5=CC(=O)C=C[C@]5(C)[C@H]4[C@@H](O)C[C@]3(C)[C@]2(C(=O)CO)O1 [Desonide]	> 50	
CCCN(CCc1cccs1)[C@H]1CCc2c(O)cccc2C1 [Rotigotine]	40.9	
CCc1nccnc1C [3-Ethyl-2-methylpyrazine]	> 90	

Structure (SMILES)	CC50 at 24 h (AC50 (uM) modified / 1000) [µM]	further results
CC(C)(C)c1ccc2c(S(=O)(=O)O)c(C(C)(C)C)ccc2c1 [Sodium dibunate]	> 50	
CC1CC(=O)O1 (stereo not drawn) [beta-Butyrolactone]	> 100	
CC(C)(C)c1cc(/C=C2\SC(N)=NC2=O)cc(C(C)(C)C)c1O [Darbufelone mesylate]	23.6	
Oc1ccccc1-c1ccccc1 [Sodium 2-phenylphenate tetrahydrate]		CC50 at 24 h (AC50 (uM) modified / 1000, Tox21_110001=Tox21_112097, viability, 1 nM T3 present, 24 h): > 50 µM
O=C(O)c1ccccc1Nc1cc(Cl)ccc1C(=O)O [Lobenzarit sodium]	> 50	
O=C/C(Cl)=C(/Cl)C(=O)O [Mucochloric acid]		CC50 at 24 h (AC50 (uM) modified / 1000, Tox21_110001=Tox21_201305, viability, 1 nM T3 present, 24 h): 74 µM; CC50 at 24 h (AC50 (uM) modified / 1000, Tox21_110001=Tox21_302857, viability, 1 nM T3 present, 24 h): 63.6 µM
O=C(O)CCl [Chloroacetic acid]		CC50 at 24 h (AC50 (uM) modified / 1000, Tox21_110001=Tox21_201114, viability, 1 nM T3 present, 24 h): > 90 µM
CCOC(=O)c1ccc(NC(=O)CN2CCCCC2)cc1 [Sulcaine]	> 50	
CNC(=O)N(C)c1nc2ccccc2s1 [Methabenzthiazuron]	> 90	
OCCNCCO [Diethanolamine]	> 90	
CCCN1CCCC[C@H]1C(=O)Nc1c(C)cccc1C [Ropivacaine hydrochloride]	> 50	
CCCCC(CC)COC(=O)/C=C\C(=O)OCC(CC)CCCC (centres unmarked) [Bis(2-ethylhexyl) maleate]	> 90	
NCCNCCNCCNCCN [Tetraethylenepentamine]	> 90	
CN1C(C(=O)Nc2ccccn2)=C(O)c2sccc2S1(=O)=O [Tenoxicam]	> 20	
CCCCCCCCCCCCC1CO1 (centres unmarked) [1,2-Epoxytetradecane]	> 90	
CCC1(c2ccccc2)CCC(=O)NC1=O (centres unmarked) [Glutethimide]		CC50 at 24 h (AC50 (uM) modified / 1000, Tox21_110001=Tox21_111641, viability, 1 nM T3 present, 24 h): > 50 µM
C=C1C[C@]23C[C@@]1(O)CC[C@H]2[C@@]12C=C[C@H](O)[C@@](C)(C(=O)O1)[C@H]2[C@@H]3C(=O)O [Gibberellic acid]	> 90	
CCCCC1CCC(O)CC1 (centres unmarked) [4-Butylcyclohexanol]	> 90	
C=C1C[C@@]23CC[C@H]4[C@@](C)(CCC[C@@]4(C)C(=O)O[C@@H]4O[C@H](CO)[C@@H](O)[C@H](O)[C@H]4O)[C@@H]2CC[C@]1(O[C@@H]1O[C@H](CO)[C@@H](O)[C@H](O)[C@H]1O[C@@H]1O[C@H](CO)[C@@H](O)[C@H](O[C@@H]2O[C@H](CO)[C@@H](O)[C@H](O)[C@H]2O)[C@H]1O)C3 [Rebaudioside A]	> 90	
O=C(CCl)c1ccccc1 [2-Chloroacetophenone]		CC50 at 24 h (AC50 (uM) modified / 1000, Tox21_110001=Tox21_202075, viability, 1 nM T3 present, 24 h): > 90 µM; CC50 at 24 h (AC50 (uM) modified / 1000, Tox21_110001=Tox21_300045, viability, 1 nM T3 present, 24 h): 62.3 µM
CCOC(=O)[C@@](C)(N)Cc1ccc(O)c(O)c1 [Methyldopate hydrochloride]	> 20	
Nc1cccc(C(F)(F)F)c1 [3-(Trifluoromethyl)aniline]	> 90	
CCCCCCCCCCC1CO1 (centres unmarked) [1,2-Epoxydodecane]	> 90	
CC(=O)OCCC(C)C [3-Methylbutyl acetate]	> 90	
N[C@@H](Cc1ccc(O)c(O)c1)C(=O)O [L-Dopa]	> 50	
